# Experimental data reported in patent US20130143942A1, “METHODS OF CONTROLLING NEONICOTINOID RESISTANT APHIDS” (SYNGENTA CROP PROTECTION LLC, priority 2010, published 2013).
# What was measured:
# [1] = system: neonicotinoid insecticide resistant aphid strain; test: leaf disc spray bioassay, aphid mortality 72 hours after treatment, resistant strain; assay type: in vivo; conditions: mixed age aphids on chinese cabbage leaf discs, sprayed in Potter Tower, resistant strain collected from peach orchard, Avignon region, 2009
# Method: (§1) The following bioassay methodology was utilized to generate the data included in the table:
# (§2) 5 cm leaf discs were taken from fully expanded chinese cabbage leaves and placed with the underside facing upwards onto water agar in 5 cm Petri dishes. The leaf discs are infested with between 30 and 40 mixed age aphids 24 hours prior to insecticide treatment. The leaf surface is sprayed with the appropriate test solutions in a Burkhard Potter Tower at an approximate water volume of 450 l/ha. Test containers are stored at 21° C., 60% RH and 16:8 light/dark. Aphids were assessed for mortality 72 hours after treatment.
# [2] = system: neonicotinoid insecticide susceptible strain 4106A; test: leaf disc spray bioassay, aphid mortality 72 hours after treatment, susceptible strain; assay type: in vivo; conditions: mixed age aphids on chinese cabbage leaf discs, sprayed in Potter Tower, susceptible strain 4106A (Rothamsted Research)
# Method: as §1, §2
structure (smiles),measurement,setting,value
"CCOC(=O)OC1=C(c2cc(C)ccc2C)C(=O)N[C@]12CC[C@@H](OC)CC2 [sprirotetramat, cis-3-(2,5-dimethylphenyl)-8-methoxy-2-oxo-1-azaspiro[4.5]dec-3-en-4-yl ethyl carbonate]","LC50 with 95% confidence limit, resistant strain",[1],1.58 (1.14-2.23) ppm
same,"LC50 with 95% confidence limit, susceptible strain",[2],0.88 (0.60-1.22) ppm
